Assay: xn = mol fraction of the nth substance listed
Details: 101.3 kPa

CCCC[N+](CCCC)(CCCC)CCCC.[Cl-] + CNCCO
Details | speed of sound, x1 = 0.091 [m/s] | speed of sound, x1 = 0.111 [m/s] | speed of sound, x1 = 0.1441 [m/s] | viscosity, x1 = 0.091 [mPa·s] | viscosity, x1 = 0.111 [mPa·s] | viscosity, x1 = 0.1441 [mPa·s]
293.15 K | – | 1516.6 | 1521.4 | – | 34.4 | 47.4
298.15 K | – | – | 1505.8 | – | – | 34.3
303.15 K | 1482 | 1485.3 | – | 18.5 | 20.8 | –
308.15 K | 1466.3 | 1469.8 | – | 15.1 | 16.8 | –
313.15 K | 1450.5 | 1454.2 | – | 12.7 | 14.1 | –
318.15 K | – | 1438.9 | 1443.8 | – | 11.6 | 14.1
323.15 K | 1419.5 | 1423.6 | 1428.6 | 8.93 | 9.5 | 11.8
328.15 K | 1404.1 | – | 1413.5 | 7.38 | – | 10.3
333.15 K | 1388.5 | 1393.1 | 1398.5 | 6.48 | 6.5 | 9.58

CC[N+](CC)(CC)CC.[Cl-] + CNCCO
Details | speed of sound, x1 = 0.0914 [m/s] | speed of sound, x1 = 0.1114 [m/s] | speed of sound, x1 = 0.1413 [m/s] | viscosity, x1 = 0.0914 [mPa·s] | viscosity, x1 = 0.1114 [mPa·s] | viscosity, x1 = 0.1413 [mPa·s]
293.15 K | 1553.4 | 1565.5 | – | 20.5 | 21.9 | –
298.15 K | 1538 | 1550.1 | 1565.6 | 16.7 | 17.4 | 18.8
303.15 K | 1522.5 | – | 1550.1 | 13.5 | – | 15.2
308.15 K | – | 1519.5 | 1534.7 | – | 11.5 | 12.4
313.15 K | 1491.9 | 1504.6 | – | 9.57 | 10 | –
318.15 K | 1476.9 | 1489.4 | – | 7.92 | 8.35 | –
323.15 K | 1461.5 | – | – | 6.5 | – | –
328.15 K | – | 1458.8 | 1473.8 | – | 5.78 | 6.23
333.15 K | 1431 | 1444.6 | 1458.7 | 4.57 | 4.95 | 5.41

Source: a compilation of properties of binary mixtures (doi:10.1016/j.molliq.2022.121069)
